One data set has as its system MMP-13. As to the kind of experiment: MMP-13 ELISA on supernatants of TNF-α-treated chondrogenic pellets. The class given is cell-based, human. On the technique in general: An ELISA detects its analyte on a solid surface through an enzyme-linked reagent.
The subject of data set [1] is MIA rat model of OA. In words: MIA trial 1 weight bearing (daily s.c. clonidine 0.1, fluocinolone 0.002, morphine 6 mg/kg). The class given is in vivo. The procedure: Weight bearing (WB; incapacitance) was measured five times per day, once per week, using a Linton incapacitance meter (Stoelting Co., Wood Dale, IL, USA). Rats were acclimated to the meter before study initiation, and, similarly, immediately before WB, the animals were placed in the meter and allowed to acclimate for 2–5 minutes. Each hind paw was placed on a separate force plate so that the force exerted by each side could be averaged over a 5-second interval, and the mean of three readings was taken for each data point. Right paw force was compared with that on the left side for each group to confirm that animals were displaying incapacitance and/or pain behavior. Differences in force (left minus right) and right paw force as a percentage of the total force exerted by both paws were determined and compared between groups.
Following isoflurane anesthesia, 50 μl (2 mg) of MIA was injected into the synovial space of the left knee. Animals were randomly assigned to groups, and pain behavior was assessed 7, 14, 21, and 28 days following MIA injection and intervention using WB with the Stoelting incapacitance meter (trial 1) or the dRS test (trials 2 and 3). […] Animals received MIA treatment and then saline control or therapeutic. […] Histopathology was performed at each time point and at study termination. All studies were conducted in accordance with the International Association for the Study of Pain Guidelines and were approved by the Algos Therapeutics, Inc. Institutional Animal Care and Use Committee (IACUC) before initiation. Those running the studies were blind to the treatments. See Additional file 1 for further details. […]
dosing were housed three per cage. Animals had free access to food and water and were maintained […]
The animal colony was maintained at approximately 21 °C. All experiments were conducted in accordance with the International Association for the Study of Pain Guidelines.

The subject of data set [2] is MIA rat model of OA. In words: MIA trial 1 histopathology. The format is in vivo. The settings on record: necropsy day 29, n = 3; for Histopathology, cartilage score: 0-5 scale. The procedure:
Following functional testing in the first and second MIA trials, femurs were fixed in paraformaldehyde, processed, sectioned, stained with hematoxylin and eosin or Safranin O at Premier Laboratory (Longmont, CO, USA), and analyzed by a veterinary pathologist. For MIA trial 1, sections were evaluated for the percentage area of chondrocyte necrosis and/or proteolytic degeneration using a 5-point scale with 0 = none; 1 being <10 %; 2 = 10–30 %; 3 = 30–60 %; 4 = 60–90 %; and 5 being >90 %. Other characteristics of inflammation, proliferation, and integrity of the synovium, subchondral bone, and articular cartilage were scored as normal, minimal, mild, moderate, marked, or increased or decreased when severity was not graded. MIA trial 2 was measured similarly and then cross-checked according to the methods used for MIA trial 3 (see text below).
The histopathology for the first MIA trial was performed by Premier Laboratories (Dr. Michael Hawes, APS, Pathologist). Treatments were masked during the assessment. Chondrocyte necrosis and proteolytic degeneration of the femurs were scored on a 5 point scale with 0 = None; 1 = <10%; […]
proteoglycan content (safranin O staining), synovial membrane inflammation and proliferation, subchondral bone, and articular cartilage (as indicated in Supplementary methods). Characteristics within these categories were scored as normal, minimal, mild, moderate, marked, or +/- when severity was not graded. […]
Degenerative changes occur by 3-6 weeks post-surgery in the MMT/MCLT model and are of greatest severity on the outer 1/3 of the tibial cartilage. Less severe degenerative changes are observed in the middle and inner 1/3 of the tibial cartilage. Osteophytes progressively increase in size and are ultimately quite large (medial tibia). By 12 months nearly all rats show total cartilage loss. Due to the rapid progression of cartilage degeneration, protective effects of therapeutics are not always apparent in the outer 1/3 of the tibial cartilage, although zonal analysis may reveal effects of treatment in the middle and inner 1/3. Substantial subchondral and epiphyseal bone changes occur in the medial tibia subjacent to the areas of greatest lesion severity. […]
Scores were based on the […]
percentage of area affected within the zone.
Cartilage degeneration in the tibia was scored on a five point scale for each zone, collagen damage across the medial tibial plateau was measured by total width for each grade damage. Cartilage degeneration in the tibia was scored none to severe (numerical values 0-5) for each zone (area defined by micrometer) using the following criteria: […]

Data set [3] can be described thus: MIA trial 2 clinical observations. The format is in vivo, rat. The settings on record: tacrolimus i.p. daily.
The conditions of data set [4]: rat, in vivo.
Experimental: Using the MMT/MCLT model, a number of the same agents were tested via systemic delivery and
using incapacitance /weight bearing as a measure of pain.

Where two headings read alike, the source gives them in different places.

Consider `Clc1cccc(Cl)c1N=C1NCCN1` [Clonidine], for which the “Effective range against MMP-13” value in the data set on MMP-13 is listed as “Not effective”. Besides, the “Weight bearing, hours after dosing with significant difference” value in the data set on MIA rat model of OA [1] (day 14) is given as 1 h. Moreover, in the data set with MIA rat model of OA [1] (day 21, BL baseline), the “Weight bearing, hours after dosing with significant difference” value came to 1 h. In the data set on MIA rat model of OA [2], the “Histopathology, bone” value is given as “Severe” and the “Histopathology, cartilage score” value was found to be 4.7.
Turning to `CC1(C)O[C@@H]2C[C@H]3[C@@H]4C[C@H](F)C5=CC(=O)C=C[C@]5(C)[C@@]4(F)[C@@H](O)C[C@]3(C)[C@]2(C(=O)CO)O1` [Fluocinolone, Fluocinolone Acetonide], in the data set on MIA rat model of OA [1] (day 21, BL baseline), the “Weight bearing, hours after dosing with significant difference” value is recorded as “BL^b, 1”. For the same molecule, in the data set with MIA rat model of OA [2], the “Histopathology, bone” value is on record as “Minimal” and the “Histopathology, cartilage score” value turned out to be 3.0.
Regarding `C=CC[C@@H]1/C=C(\C)C[C@H](C)C[C@H](OC)[C@H]2O[C@@](O)(C(=O)C(=O)N3CCCC[C@H]3C(=O)O[C@H](/C(C)=C/[C@@H]3CC[C@@H](O)[C@H](OC)C3)[C@H](C)[C@@H](O)CC1=O)[C@H](C)C[C@@H]2OC` [Tacrolimus], in the data set with MMP-13 (> = failed to inhibit up to highest concentration tested), the “Concentration inhibiting MMP-13” value worked out at 50 µM. The Clinical observation entry in data set [3] and in data set [4] was “blood in the stool” in each case.

The record behind these values is article PMC4721142, “Randomized controlled studies on the efficacy of antiarthritic agents in inhibiting cartilage degeneration and pain associated with progression of osteoarthritis in the rat” (Arthritis Research & Therapy, 2016).
